Literature values, collected in patent US20250262218A1, “COMPOSITIONS, FORMULATIONS AND METHODS FOR STIMULATING RESPIRATION” (Auros Pharma LLC, priority 2024, published 2025).
Where two headings read alike, the source gives them in different places.

- solubility (in alcohol): sparingly soluble
- solubility (in ether): practically insoluble
- solubility (in water): soluble
- stability (light and air): stable in light and air
Compound: CCN1CC(CCN2CCOCC2)C(c2ccccc2)(c2ccccc2)C1=O (stereo not shown) [doxapram, 1-ethyl-4-(2-morpholinoethyl)-3,3-diphenyl-2-pyrrolidinone]
